Data from ChEMBL document CHEMBL6182949 (J Med Chem, 2025).
Activity calls are given as the source filed them. The calls are words filed in the database; no cut-off is given here.

Columns and labels:
[1] = molecular target: Protein cereblon/Interleukin-1 receptor-associated kinase 4 (Mus musculus) (UniProt Q8C7D2+Q8R4K2); assay: PROTAC activity at CRBN/IRAK4 in mouse PBMC cells assessed as induction of IRAK4 degradation incubated for 24 hrs by HiBiT lytic reagent based analysis relative to control; format: cell-based
[2] = Cmax in cynomolgus monkey at 1 mg/kg, iv measured up to 24 hrs by LC-MS/MS analysis; format: ADME, organism-based, Macaca fascicularis; details: in vivo
[3] = Metabolic stability dog hepatocyte assessed as half life at 1 uM measured up to 120 mins by LC-MS/MS analysis; format: ADME, cell-based, Canis lupus familiaris; details: hepatocytes
[4] = Half life in Beagle dog at 10 mg/kg, po measured up to 24 hrs by LC-MS/MS analysis; format: ADME, organism-based, Canis lupus familiaris; details: in vivo
[5] = tested on: Mus musculus; assay: Anti-psoriasis effect in IMQ-induced C57BL/6 mouse assessed as reduction in ear thickness at 30 mg/kg administered topically twice daily for 6 days and measured after 24 hrs; format: functional, organism-based; details: time 7.0 day
[6] = tested on: Mus musculus; assay: Anti-psoriasis effect in IMQ-induced C57BL/6 mouse assessed as reduction in ear thickness at 10 mg/kg administered topically twice daily for 6 days and measured after 24 hrs; format: functional, organism-based; details: time 7.0 day
[7] = Half life in Sprague-Dawley rat at 10 mg/kg, po measured up to 24 hrs by LC-MS/MS analysis; format: ADME, organism-based; details: in vivo
[8] = Half life in cynomolgus monkey at 1 mg/kg, iv measured up to 24 hrs by LC-MS/MS analysis; format: ADME, organism-based, Macaca fascicularis; details: in vivo
[9] = molecular target: Protein cereblon/Interleukin-1 receptor-associated kinase 4 (Homo sapiens, UniProt Q9NWZ3+Q96SW2); assay: PROTAC activity at CRBN/IRAK4 in human PBMC cells assessed as induction of IRAK4 degradation incubated for 24 hrs by HiBiT lytic reagent based analysis relative to control; format: cell-based
Protein cereblon/Interleukin-1 receptor-associated kinase 4 (Homo sapiens, UniProt Q9NWZ3+Q96SW2), sequence (Q96SW2 whole entry, looked up): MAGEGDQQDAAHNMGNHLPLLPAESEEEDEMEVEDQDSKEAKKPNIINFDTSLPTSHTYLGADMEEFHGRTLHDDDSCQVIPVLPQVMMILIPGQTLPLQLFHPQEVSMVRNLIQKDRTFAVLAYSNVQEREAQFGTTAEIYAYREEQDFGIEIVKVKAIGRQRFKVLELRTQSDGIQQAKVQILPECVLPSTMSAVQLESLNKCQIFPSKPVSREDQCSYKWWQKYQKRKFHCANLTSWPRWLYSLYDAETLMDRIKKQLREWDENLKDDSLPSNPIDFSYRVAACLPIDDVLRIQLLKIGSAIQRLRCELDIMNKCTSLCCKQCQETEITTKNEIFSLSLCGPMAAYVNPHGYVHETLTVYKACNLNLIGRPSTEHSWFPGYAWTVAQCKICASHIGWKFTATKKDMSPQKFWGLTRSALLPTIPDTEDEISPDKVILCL
Protein cereblon/Interleukin-1 receptor-associated kinase 4 (Homo sapiens, UniProt Q9NWZ3+Q96SW2), sequence (Q9NWZ3 whole entry, looked up): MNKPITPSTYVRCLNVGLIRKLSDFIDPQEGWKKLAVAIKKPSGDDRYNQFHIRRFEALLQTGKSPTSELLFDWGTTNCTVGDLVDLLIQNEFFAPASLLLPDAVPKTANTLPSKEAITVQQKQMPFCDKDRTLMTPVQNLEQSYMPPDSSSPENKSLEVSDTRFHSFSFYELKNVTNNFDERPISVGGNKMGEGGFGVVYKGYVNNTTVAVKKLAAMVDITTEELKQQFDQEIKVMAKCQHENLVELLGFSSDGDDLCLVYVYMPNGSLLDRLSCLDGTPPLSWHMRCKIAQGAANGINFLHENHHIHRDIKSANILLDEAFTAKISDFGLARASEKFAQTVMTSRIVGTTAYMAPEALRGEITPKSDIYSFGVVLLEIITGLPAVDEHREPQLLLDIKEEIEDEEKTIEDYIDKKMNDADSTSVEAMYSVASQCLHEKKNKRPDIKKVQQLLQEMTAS

[10] = molecular target: Protein cereblon/Interleukin-1 receptor-associated kinase 4 (Macaca fascicularis) (UniProt A0A2K5UTB3+A0A2K5V3Y9); assay: PROTAC activity at CRBN/IRAK4 in cynomolgus monkey PBMC assessed as reduction in IRAK4 level measured at 48 hrs by immunoblotting analysis; format: cell-based; parameters: scale not given: the % may be the effect or the level left
Protein cereblon/Interleukin-1 receptor-associated kinase 4 (Macaca fascicularis), sequence (A0A2K5UTB3 1-488): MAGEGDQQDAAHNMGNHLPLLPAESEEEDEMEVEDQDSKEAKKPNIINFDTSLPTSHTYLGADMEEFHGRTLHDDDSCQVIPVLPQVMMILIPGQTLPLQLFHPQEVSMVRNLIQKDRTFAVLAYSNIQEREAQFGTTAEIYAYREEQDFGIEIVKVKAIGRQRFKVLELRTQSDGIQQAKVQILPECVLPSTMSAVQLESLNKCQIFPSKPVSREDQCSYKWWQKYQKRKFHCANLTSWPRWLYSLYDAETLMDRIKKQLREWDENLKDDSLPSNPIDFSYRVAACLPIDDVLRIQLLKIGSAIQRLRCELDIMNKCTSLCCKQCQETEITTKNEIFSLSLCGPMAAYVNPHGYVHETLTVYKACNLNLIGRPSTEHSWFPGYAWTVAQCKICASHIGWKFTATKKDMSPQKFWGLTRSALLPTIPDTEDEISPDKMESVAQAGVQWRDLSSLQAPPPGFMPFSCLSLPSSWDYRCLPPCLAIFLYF
Protein cereblon/Interleukin-1 receptor-associated kinase 4 (Macaca fascicularis), sequence (A0A2K5V3Y9 1-460 partner): as the sequence (Q9NWZ3 whole entry, looked up) above, with I118V, C128Y, V138L, P148L, T208A, A459D counted along it

[11] = AUClast in Sprague-Dawley rat at 2 mg/kg, iv measured up to 24 hrs by LC-MS/MS analysis; format: ADME, organism-based; details: in vivo
[12] = Tmax in Sprague-Dawley rat at 10 mg/kg, po measured up to 24 hrs by LC-MS/MS analysis; format: ADME, organism-based; details: in vivo
[13] = Volume of distribution at steady state in Beagle dog at 2 mg/kg, iv measured up to 24 hrs by LC-MS/MS analysis; format: ADME, organism-based, Canis lupus familiaris; details: in vivo
[14] = Half life in cynomolgus monkey at 20 mg/kg, po measured up to 24 hrs by LC-MS/MS analysis; format: ADME, organism-based, Macaca fascicularis; details: in vivo
[15] = Clearance in male C57BL/6 mouse at 2 mg/kg, iv measured up to 24 hrs by LC-MS/MS analysis; format: ADME, organism-based; details: in vivo
[16] = Volume of distribution at steady state in Sprague-Dawley rat at 2 mg/kg, iv measured up to 24 hrs by LC-MS/MS analysis; format: ADME, organism-based; details: in vivo, read-out: Vdss
[17] = Plasma protein binding in human assessed as unbound fraction incubated for 2 hrs by rapid equilibrium dialysis; format: ADME, cell-free
[18] = Half life in male C57BL/6 mouse at 2 mg/kg, iv measured up to 24 hrs by LC-MS/MS analysis; format: ADME, organism-based; details: in vivo
[19] = Tmax in Beagle dog at 10 mg/kg, po measured up to 24 hrs by LC-MS/MS analysis; format: ADME, organism-based, Canis lupus familiaris; details: in vivo
[20] = molecular target: Protein cereblon/Zinc finger protein Aiolos (Homo sapiens) (UniProt Q96SW2+Q9UKT9); assay: PROTAC activity at CRBN/IKZF3 in human PBMC cells assessed as induction of SALL4 degradation at 1 uM by Western blot analysis; format: cell-based
Protein cereblon/Zinc finger protein Aiolos (Homo sapiens), sequence (Q96SW2 whole entry, looked up): as the sequence (Q96SW2 whole entry, looked up) above
Protein cereblon/Zinc finger protein Aiolos (Homo sapiens), sequence (Q9UKT9 whole entry, looked up): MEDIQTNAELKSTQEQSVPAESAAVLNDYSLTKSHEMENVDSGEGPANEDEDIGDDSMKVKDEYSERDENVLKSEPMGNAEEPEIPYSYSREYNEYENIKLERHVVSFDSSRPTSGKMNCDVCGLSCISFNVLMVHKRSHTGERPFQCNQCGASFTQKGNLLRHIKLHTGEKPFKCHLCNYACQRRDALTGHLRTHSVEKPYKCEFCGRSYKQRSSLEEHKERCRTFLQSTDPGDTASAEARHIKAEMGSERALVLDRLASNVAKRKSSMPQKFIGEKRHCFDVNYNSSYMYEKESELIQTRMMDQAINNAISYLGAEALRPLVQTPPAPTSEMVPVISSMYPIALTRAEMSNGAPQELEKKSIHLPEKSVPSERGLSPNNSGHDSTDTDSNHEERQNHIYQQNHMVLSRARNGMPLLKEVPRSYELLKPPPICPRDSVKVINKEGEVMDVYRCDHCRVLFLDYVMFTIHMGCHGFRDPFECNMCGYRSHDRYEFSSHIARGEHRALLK

[21] = Cmax in Sprague-Dawley rat at 10 mg/kg, po measured up to 24 hrs by LC-MS/MS analysis; format: ADME, organism-based; details: in vivo
[22] = molecular target: T1, Protein cereblon/Interleukin-1 receptor-associated kinase 4 (Mus musculus, UniProt Q8C7D2+Q8R4K2); assay: PROTAC activity at CRBN/IRAK4 in mouse PBMC cells assessed as induction of IRAK4 degradation incubated for 24 hrs by HiBiT lytic reagent based analysis; format: cell-based
T1 sequence (Q8C7D2 whole entry): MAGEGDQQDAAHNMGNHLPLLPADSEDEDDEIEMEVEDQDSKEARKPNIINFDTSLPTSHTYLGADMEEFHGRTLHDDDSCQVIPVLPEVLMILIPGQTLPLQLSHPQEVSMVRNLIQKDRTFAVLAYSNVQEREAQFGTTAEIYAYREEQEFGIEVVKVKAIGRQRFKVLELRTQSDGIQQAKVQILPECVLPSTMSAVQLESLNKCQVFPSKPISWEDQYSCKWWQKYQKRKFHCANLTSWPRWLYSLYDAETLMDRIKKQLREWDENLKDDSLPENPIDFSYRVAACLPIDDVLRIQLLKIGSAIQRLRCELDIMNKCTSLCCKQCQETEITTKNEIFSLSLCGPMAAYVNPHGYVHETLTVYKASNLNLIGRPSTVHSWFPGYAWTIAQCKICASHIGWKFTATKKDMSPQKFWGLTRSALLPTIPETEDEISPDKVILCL
T1 sequence (Q8R4K2 whole entry): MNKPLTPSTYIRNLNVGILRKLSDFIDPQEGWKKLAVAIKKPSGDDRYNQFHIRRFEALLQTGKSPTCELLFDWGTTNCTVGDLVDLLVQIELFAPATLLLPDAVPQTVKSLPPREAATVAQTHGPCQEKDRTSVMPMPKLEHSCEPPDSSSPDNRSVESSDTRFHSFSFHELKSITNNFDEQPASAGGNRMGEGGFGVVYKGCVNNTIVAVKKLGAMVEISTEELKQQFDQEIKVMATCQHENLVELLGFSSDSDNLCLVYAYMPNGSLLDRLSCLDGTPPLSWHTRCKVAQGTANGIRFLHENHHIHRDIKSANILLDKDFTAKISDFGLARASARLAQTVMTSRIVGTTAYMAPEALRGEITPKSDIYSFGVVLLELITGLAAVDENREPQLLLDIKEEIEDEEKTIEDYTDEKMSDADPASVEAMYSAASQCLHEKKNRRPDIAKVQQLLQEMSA

[23] = tested on: Mus musculus; assay: Anti-psoriasis effect in IMQ-induced C57BL/6 mouse assessed as reduction in erythema intensity administered topically twice daily for 6 days and measured after 24 hrs; format: functional, organism-based; details: dose 10-100 mg/kg, time 7.0 day
[24] = Cmax in Beagle dog at 2 mg/kg, iv measured up to 24 hrs by LC-MS/MS analysis; format: ADME, organism-based, Canis lupus familiaris; details: in vivo
[25] = Cmax in Sprague-Dawley rat at 2 mg/kg, iv measured up to 24 hrs by LC-MS/MS analysis; format: ADME, organism-based; details: in vivo
[26] = Plasma protein binding in mouse assessed as unbound fraction incubated for 2 hrs by rapid equilibrium dialysis; format: ADME, cell-free
[27] = Cmax in male C57BL/6 mouse at 10 mg/kg, po measured up to 24 hrs by LC-MS/MS analysis; format: ADME, organism-based; details: in vivo
[28] = Metabolic stability monkey hepatocyte assessed as half life at 1 uM measured up to 120 mins by LC-MS/MS analysis; format: ADME, cell-based, Macaca mulatta; details: rhesus monkey, hepatocytes

Q: For `Cn1c(=O)n(C2CCC(=O)NC2=O)c2cccc(C#CCO[C@H]3CC[C@H](CN4CCC5(CC4)Cc4cc(NC(=O)c6coc7cccnc67)c(N6CCC(CO)CC6)cc4O5)CC3)c21` (stereo partly drawn), which Emax [1] is on record?
A: The Emax was 82%.

Q: What about the Cmax [2] of the same compound?
A: The Cmax was 672 ng/mL.

Q: And the half-life at 1 µM [3]?
A: The half-life at 1 µM was over 6.18 h.

Q: What about the half-life [4] of the same compound?
A: The half-life was 10.6 h.

Q: And the Activity [5]?
A: The Activity was “Active”.

Q: What about the Activity [6] of the same compound?
A: Its Activity is “Active”.

Q: And the half-life [7]?
A: The half-life was 3.43 h.

Q: What about the half-life [8] of the same compound?
A: Its half-life is 8.67 h.

Q: And the Emax [9]?
A: Its Emax is 94%.

Q: What about the Activity [10] of the same compound?
A: Its Activity is 83%.

Q: And the AUClast [11]?
A: The AUClast was 25.89 ng·h/mL.

Q: And the Tmax [12]?
A: Its Tmax is 6 h.

Q: And the Vdss [13]?
A: The Vdss was 73 L/kg.

Q: And the half-life [14]?
A: Its half-life is 9.07 h.

Q: And the clearance [15]?
A: The clearance was 3.13 mL/min/kg.

Q: And the Vd [16]?
A: The Vd was 2.66 L/kg.

Q: What about the Fu [17] of the same compound?
A: Its Fu is under 0.08%.

Q: What about the half-life [18] of the same compound?
A: Its half-life is 3.12 h.

Q: What about the Tmax [19] of the same compound?
A: The Tmax was 4 h.

Q: What about the Activity [20] of the same compound?
A: Its Activity is “inactive”.

Q: What about the Cmax [21] of the same compound?
A: Its Cmax is 613 ng/mL.

Q: What about the DC50 [22] of the same compound?
A: Its DC50 is 3.57 nM.

Q: What about the Activity [23] of the same compound?
A: The Activity was “Dose-dependent-effect”.

Q: What about the Cmax [24] of the same compound?
A: Its Cmax is 599 ng/mL.

Q: What about the Cmax [25] of the same compound?
A: Its Cmax is 14.2 ng/mL.

Q: What about the Fu [26] of the same compound?
A: The Fu was 0.09%.

Q: What about the Cmax [27] of the same compound?
A: The Cmax was 1070 ng/mL.

Q: And the half-life at 1 µM [28]?
A: Its half-life at 1 µM is over 6.18 h.
